Data as given in patent US11407754B2, “Substituted piperidines as kinase inhibitors” (Daewoong Pharmaceutical Co., Ltd., priority 2017, dated 2022).

Legend:
human JAK3 = human JAK3 (Homo sapiens (Human), UniProt P52333); experiment: JAK3 kinase inhibitory activity, ADP Glo assay; details: read-out: JAK3 IC50, recombinant human JAK3, ATP 5 uM
JAK3 = experiment: JAK3-mediated cell assay (HT-2/IL-2 assay), STAT5 phosphorylation; type: cell-based; details: HT2; STAT5 phosphorylation induced by IL-2 (20 ng/ml) in HT-2 cells, HTRF
Protocol: The inhibitory activities against JAK3 kinase at the cellular level were measured for the compounds prepared in the Examples through in vitro analysis of STAT5 phosphorylation induced by IL-2 stimulation in HT-2 cells. Specifically, STAT5 phosphorylation was analyzed using HTRF® phospho-STAT5 (Tyr694) assay kit (Cisbio, 64AT5PEG), which was purchased from Cisbio. HT-2 cells were cultured for 2 hours in growth factor-free medium. The cultured HT-2 cells were dispensed into 96-well plates by 50 ul so as to be a density of 2.5×10^5 cells/well. The compounds prepared in the previous Examples were prepared so as to be finally a 0.3% DMSO aqueous solution, and HT-2 cells was treated with the compounds for 30 minutes. After the compound treatment, IL-2 was prepared so as to be finally a concentration of 20 ng/ml, and HT-2 cells was treated for 10 minutes. The cells were then disrupted by treating lysis buffers for 30 minutes. The level of STAT5 phosphorylation was measured according to the instructions of HTRF® phospho-STAT5 assay kit, and the inhibitory activity of the compounds according to the invention was calculated. For the analysis of the results of each compound, Microsoft Excel was used, and IC50 values were calculated by SigmaPlot software.

human BTK = human BTK (Homo sapiens (Human), UniProt Q06187); experiment: BTK kinase inhibitory activity, ADP Glo assay; details: read-out: BTK IC50, recombinant human BTK, ATP 10 uM
Chain of human BTK (Q06187 whole entry): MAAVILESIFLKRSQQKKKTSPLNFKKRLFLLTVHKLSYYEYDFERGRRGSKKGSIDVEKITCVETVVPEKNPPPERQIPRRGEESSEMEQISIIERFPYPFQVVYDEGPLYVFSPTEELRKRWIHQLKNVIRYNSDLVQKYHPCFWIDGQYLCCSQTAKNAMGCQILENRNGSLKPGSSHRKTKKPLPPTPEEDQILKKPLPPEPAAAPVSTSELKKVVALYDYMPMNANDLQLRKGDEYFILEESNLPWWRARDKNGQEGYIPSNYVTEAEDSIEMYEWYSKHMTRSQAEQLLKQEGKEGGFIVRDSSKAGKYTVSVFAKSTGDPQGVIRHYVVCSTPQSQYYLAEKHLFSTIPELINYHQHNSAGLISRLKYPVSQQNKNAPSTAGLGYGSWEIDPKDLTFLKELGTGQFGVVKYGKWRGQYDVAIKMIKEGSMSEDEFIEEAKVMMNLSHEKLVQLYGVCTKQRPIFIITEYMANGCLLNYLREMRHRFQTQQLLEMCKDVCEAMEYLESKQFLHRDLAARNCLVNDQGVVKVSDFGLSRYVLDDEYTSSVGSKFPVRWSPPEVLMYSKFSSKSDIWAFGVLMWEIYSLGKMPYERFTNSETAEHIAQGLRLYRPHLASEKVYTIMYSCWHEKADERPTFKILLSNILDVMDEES

Chain of human JAK3 (P52333 whole entry): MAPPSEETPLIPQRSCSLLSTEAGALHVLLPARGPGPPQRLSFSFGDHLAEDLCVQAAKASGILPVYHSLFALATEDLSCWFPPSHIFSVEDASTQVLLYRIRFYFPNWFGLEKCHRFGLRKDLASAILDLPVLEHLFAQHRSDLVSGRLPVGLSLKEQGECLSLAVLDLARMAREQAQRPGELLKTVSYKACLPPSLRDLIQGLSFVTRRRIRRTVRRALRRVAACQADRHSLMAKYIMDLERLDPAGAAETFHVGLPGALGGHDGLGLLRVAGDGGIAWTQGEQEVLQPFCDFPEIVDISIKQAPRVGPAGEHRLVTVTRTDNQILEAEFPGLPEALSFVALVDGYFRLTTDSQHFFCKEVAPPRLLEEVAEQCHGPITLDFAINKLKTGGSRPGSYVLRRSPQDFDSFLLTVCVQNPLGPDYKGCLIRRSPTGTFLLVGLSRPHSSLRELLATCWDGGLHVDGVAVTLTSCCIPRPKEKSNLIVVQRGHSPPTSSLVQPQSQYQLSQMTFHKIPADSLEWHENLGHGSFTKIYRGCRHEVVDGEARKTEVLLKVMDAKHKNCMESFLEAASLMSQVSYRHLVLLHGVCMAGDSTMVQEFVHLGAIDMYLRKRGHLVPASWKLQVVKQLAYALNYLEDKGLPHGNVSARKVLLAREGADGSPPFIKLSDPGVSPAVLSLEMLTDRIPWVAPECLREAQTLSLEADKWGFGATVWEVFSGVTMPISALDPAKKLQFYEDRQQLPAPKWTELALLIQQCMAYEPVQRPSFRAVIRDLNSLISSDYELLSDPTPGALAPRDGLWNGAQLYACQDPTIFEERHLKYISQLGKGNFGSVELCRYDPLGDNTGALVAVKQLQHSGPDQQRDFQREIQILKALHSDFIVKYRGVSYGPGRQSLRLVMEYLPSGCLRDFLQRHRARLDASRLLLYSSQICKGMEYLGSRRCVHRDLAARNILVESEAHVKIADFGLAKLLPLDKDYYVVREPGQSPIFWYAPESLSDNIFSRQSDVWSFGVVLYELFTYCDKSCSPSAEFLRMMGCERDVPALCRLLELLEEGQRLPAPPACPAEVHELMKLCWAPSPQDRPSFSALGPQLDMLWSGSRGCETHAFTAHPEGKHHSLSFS

Row | SMILES | IC50 (human JAK3) [nM] | IC50 (JAK3) [nM] | IC50 (human BTK) [nM]
1 | C=CC(=O)N1C[C@H](Nc2nc(Nc3cnn(CC)c3)nc3[nH]cc(Cl)c23)CC[C@@H]1C [Example 1, 1-((2S,5R)-5-((5-chloro-2-((1-ethyl-1H-pyrazol-4-yl)amino)-7H-pyrrolo[2,3-d]pyrimidin-4-yl)amino)-2-methylpiperidin-1-yl)prop-2-en-1-one] | 0.3 | 90.9 | 1.2
2 | C=CC(=O)N1C[C@H](Nc2nc(Nc3cnn(CC)c3)nc3[nH]ccc23)CC[C@@H]1C [Example 2, 1-((2S,5R)-5-((2-((1-ethyl-1H-pyrazol-4-yl)amino)-7H-pyrrolo[2,3-d]pyrimidin-4-yl)amino)-2-methylpiperidin-1-yl)prop-2-en-1-one] | 0.4 | 360 | 1.3
3 | C=CC(=O)N1C[C@H](Nc2nc(Nc3cnn(CC(C)C)c3)nc3[nH]ccc23)CC[C@@H]1C [Example 3, 1-((2S,5R)-5-((2-((1-isobutyl-1H-pyrazol-4-yl)amino)-7H-pyrrolo[2,3-d]pyrimidin-4-yl)amino)-2-methylpiperidin-1-yl)prop-2-en-1-one] | 1.8 |  | 3.5
4 | C=CC(=O)N1C[C@H](Nc2nc(Nc3cnn(C4CCCC4)c3)nc3[nH]ccc23)CC[C@@H]1C [Example 4, 1-((2S,5R)-5-((2-((1-cyclopentyl-1H-pyrazol-4-yl)amino)-7H-pyrrolo[2,3-d]pyrimidin-4-yl)amino)-2-methylpiperidin-1-yl)prop-2-en-1-one] | 2.2 |  | 5.4
5 | C=CC(=O)N1C[C@H](Nc2nc(Nc3cnn(CCNC(=O)OC(C)(C)C)c3)nc3[nH]ccc23)CC[C@@H]1C [Example 5] | 1.2 |  | 5.3
6 | C=CC(=O)N1C[C@H](Nc2nc(Nc3cnsc3)nc3[nH]cc(Cl)c23)CC[C@@H]1C [Example 6] | 0.6 |  | 3.4
7 | C=CC(=O)N1C[C@H](Nc2nc(Nc3cnn(CC(F)F)c3)nc3[nH]cc(Cl)c23)CC[C@@H]1C [Example 7, 1-((2S,5R)-5-((5-chloro-2-((1-(2,2-difluoroethyl)-1H-pyrazol-4-yl)amino)-7H-pyrrolo[2,3-d]pyrimidin-4-yl)amino)-2-methylpiperidin-1-yl)prop-2-en-1-one] | 0.3 |  | 1.6
8 | C=CC(=O)N1C[C@H](Nc2nc(Nc3cnn(C4CC4)c3)nc3[nH]cc(Cl)c23)CC[C@@H]1C [Example 9, 1-((2S,5R)-5-((5-chloro-2-((1-cyclopropyl-1H-pyrazol-4-yl)amino)-7H-pyrrolo[2,3-d]pyrimidin-4-yl)amino)-2-methylpiperidin-1-yl)prop-2-en-1-one] | 0.3 |  | 2
9 | C=CC(=O)N1C[C@H](N(C)c2nc(Nc3cnn(CC)c3)nc3[nH]nc(Cl)c23)CC[C@@H]1C [Example 11, 1-((2S,5R)-5-((3-chloro-6-((1-ethyl-1H-pyrazol-4-yl)amino)-1H-pyrazolo[3,4-d]pyrimidin-4-yl)(methyl)amino)-2-methylpiperidin-1-yl)prop-2-en-1-one] | 5.7 |  | 0.9
